# Source: patent US20140377223A1, “SUBSTITUTED B[…] AND METHODS OF USE THEREOF FOR THE TREATMENT OF VIRAL DISEASES” (priority 2010, published 2014)
# Key:
# HCV replicon genotype 1a = experiment: Cell-based HCV replicon assay (TaqMan-based), genotype 1a; conditions: Hepatitis C virus, 72 h, HCV replicon cells, replicon RNA by real time PCR (TaqMan) on day 3
# Description: (§1) Measurement of inhibition by compounds was performed using the HCV replicon system. Several different replicons encoding different HCV genotypes or mutations were used. In addition, potency measurements were made using different formats of the replicon assay, including different ways of measurements and different plating formats. See Jan M. Vrolijk et al., A replicons-based bioassay for the measurement of interferons in patients with chronic hepatitis C, 110 J. VIROLOGICAL METHODS 201 (2003); Steven S. Carroll et al., Inhibition of Hepatitis C Virus RNA Replication by 2′-Modified Nucleoside Analogs, 278(14) J. BIOLOGICAL CHEMISTRY 11979 (2003). However, the underlying principles are common to all of these determinations, and are outlined below.
# (§2) TaqMan®-Based Assay Protocol: Compounds 1, 2 and 3 were assayed for cell-based anti-HCV activity by the following protocol. Replicon cells were seeded at 5000 cells/well in 96-well collagen I-coated Nunc plates in the presence of the test compound. Various concentrations of test compound, typically in 10 serial 2-fold dilutions, were added to the assay mixture, with the starting concentration ranging from 250 μM to 1 μM. The final concentration of DMSO was 0.5%, fetal bovine serum was 5%, in the assay media. Cells were harvested on day 3 by the addition of 1× cell lysis buffer (Ambion cat #8721). The replicon RNA level was measured using real time PCR (TaqMan® assay). The amplicon was located in 5B. The PCR primers were: 5B.2F, ATGGACAGGCGCCCTGA (SEQ. ID NO. 1); 5B.2R, […] (SEQ. ID NO. 2); the probe sequence was FAM-labeled CACGCCATGCGCTGCGG (SEQ. ID NO. 3). GAPDH RNA was used as endogenous control and was amplified in the same reaction as NS5B (multiplex PCR) using primers and VIC-labeled probe recommended by the manufacturer (PE Applied Biosystem). […] Alternatively, to quantitate the absolute amount of replicon RNA, a standard curve was established by including serially diluted T7 transcripts of replicon RNA in the Taqman assay. […]
# HCV replicon genotype 1b = experiment: Cell-based HCV replicon assay (TaqMan-based), genotype 1b; conditions: Hepatitis C virus, 72 h, HCV replicon cells, replicon RNA by real time PCR (TaqMan) on day 3
# Description: as §1, §2
# HCV replicon genotype 2a = experiment: Cell-based HCV replicon assay (TaqMan-based), genotype 2a; conditions: Hepatitis C virus, 72 h, HCV replicon cells, replicon RNA by real time PCR (TaqMan) on day 3
# Description: as §1, §2
# HCV replicon genotype 3a = experiment: Cell-based HCV replicon assay (TaqMan-based), genotype 3a; conditions: Hepatitis C virus, 72 h, read-out: Genotype EC50 (nM) 3a
# Description: as §1, §2
smiles,measurement,setting,value
COC(=O)N[C@H](C(=O)N1CCC[C@H]1c1ncc(-c2ccc3c(c2)-c2ccc(-c4cnc([C@@H]5CCCN5C(=O)[C@@H](NC(=O)OC)C(C)C)[nH]4)cc2-3)[nH]1)C(C)C [Compound 1],EC50,HCV replicon genotype 1a,0.03 nM
same,EC50,HCV replicon genotype 1b,0.007 nM
same,EC50,HCV replicon genotype 2a,< 0.019 nM
same,EC50,HCV replicon genotype 3a,< 0.19 nM
COC(=O)N[C@H](C(=O)N1C(c2ncc(-c3ccc4c(c3)-c3ccc(-c5cnc([C@@H]6[C@H]7CC[C@H](C7)N6C(=O)[C@@H](NC(=O)OC)C(C)C)[nH]5)cc3-4)[nH]2)[C@H]2CC[C@@H]1C2)C(C)C (stereo partly drawn) [Compound 2],EC50,HCV replicon genotype 1a,0.52 nM
same,EC50,HCV replicon genotype 1b,0.005 nM
same,EC50,HCV replicon genotype 2a,< 0.019 nM
same,EC50,HCV replicon genotype 3a,< 0.19 nM
COC(=O)N[C@H](C(=O)N1CC(F)(F)C[C@H]1c1ncc(-c2ccc3c(c2)-c2ccc(-c4cnc([C@@H]5CC(F)(F)CN5C(=O)[C@@H](NC(=O)OC)C(C)C)[nH]4)cc2-3)[nH]1)C(C)C [Compound 3],EC50,HCV replicon genotype 1a,0.05 nM
same,EC50,HCV replicon genotype 1b,0.003 nM
same,EC50,HCV replicon genotype 2a,< 0.019 nM
same,EC50,HCV replicon genotype 3a,0.022 nM
